The record followed here is patent US6652633B2, “Fire retardant” (Arch Wood Protection, Inc., priority 2001, dated 2003).

A short description of this series: potentiometric titration against 0.1 N NaOH with mannitol complexation (equivalence points). Particulars: aqueous GUP/boric acid solution complexed with mannitol; potentiometric titration of GUP/boric acid solutions, samples complexed with mannitol; read-out: pKa (equivalence point). In kind it is physicochemical. As for the experimental part:
The mixture was heated to approximately 48° C. to dissolve all of the solids, and a sample for analysis taken. The temperature of the solution was then raised and maintained between 70° C. and 90° C. for 3.5 hours. Samples of the solution were analyzed by potentiometric titration every hour, and at the end of the 3.5 hour reaction period.
The samples were titrated against approximately 0.1 N NaOH (standardized against a potassium hydrogen phthalate standard from NIST). Because the pKa of GUP is very close to that for boric acid, the samples were each complexed with 10 g of mannitol to form a boric acid ester having a lower pKa that is more easily distinguishable from that of GUP. The results are given in Table 1,below, and plotted on FIG. 1.
Approximately 0.1000 g of solid product was combined with about 10 g mannitol and titrated against 0.1 N NaOH. The mannitol was added to react with the boric acid to for a borate ester, which has a much lower equivalence point than GUP. […] The loss in yield was attributable to the short reaction time allowed in this example. A kinetic analysis was subsequently undertaken, and it was determined that an increase in GUP yield could be obtained by increasing the reaction time, as indicated in Table 4 below.

As to `N=C(N)NC(N)=O` [GUP, guanylurea phosphate], the pKa amounted to 7.25.
